Tests used:
[1] = test system: TFF2 mRNA expression; assay: RNA blot of TFF2 mRNA expression in mouse hepatoma cells exposed to TCDD; type: cell-based
Method: (§1) (A) RNA blot (30 μg total RNA) showing mRNA expression in mouse hepatoma cells of TFF2, CYP1A1 and the housekeeping gene GAPDH after exposure to increasing concentrations of TCDD. Mouse hepatoma cells were cultured in 6 cm petri dishes and exposed to TCDD dissolved in dimethyl sulfoxid (DMSO, 0.1% total volume) at concentrations indicated in the figure, or vehicle alone (“0 nM”) for 24 hours before cell harvest and RNA isolation. The band intensity of TFF2 (B) and CYP1A1 (C) was measured by Phosphor Imager analysis and normalized against expression of GAPDH. The numbers represent the fold increase of TFF2 and CYP1A1 mRNA expression compared to the corresponding vehicle-treated control.
(§2) (A) RNA blot (30 μg total RNA) showing mRNA expression in mouse hepatoma cells of TFF2, CYP1A1 and the housekeeping gene GAPDH after exposure to TCDD at increasing length of time. […] The band intensity of TFF2 (B) and CYP1A1 (C) was measured by Phosphor Imager analysis and normalized against expression of GAPDH. […]
(§3) The glandular part of mouse stomachs was removed and snap-frozen in liquid nitrogen. […] The filters were hybridized with specific 32P-labeled cDNA fragments and exposed to autoradiographic film and band intensity was quantified by Phosphoimager analysis (Fuji).

[2] = test system: CYP1A1 mRNA expression; assay: RNA blot of CYP1A1 mRNA expression in mouse hepatoma cells exposed to TCDD; type: cell-based
Method: as §1, §2, §3

[3] = 10 nM TCDD, increasing length of time, vs vehicle
[4] = increasing concentrations of TCDD, 24 hours, vs vehicle (DMSO)

Clc1cc2c(cc1Cl)Oc1cc(Cl)c(Cl)cc1O2 [TCDD, 2,3,7,8-tetrachlorodibenzo-p-dioxin]
TFF2 mRNA expression normalized against GAPDH [1, 3]: time-dependent increase
TFF2 mRNA expression normalized against GAPDH [1, 4]: concentration-dependent increase
CYP1A1 mRNA expression normalized against GAPDH [2, 3]: time-dependent increase
CYP1A1 mRNA expression normalized against GAPDH [2, 4]: concentration-dependent increase
